Results as given in patent US9393244B2, “Increasing parkin activity by administering a deubiquitinating enzyme inhibitor” (Georgetown University, priority 2013, dated 2016).
Peptide text beside a SMILES is read from it. * marks the point of attachment. Cbz = O=C(OCc1ccccc1)*

What was measured:
20S proteasome = molecular target: T1, 20S proteasome (Homo sapiens, UniProt P28074); test: Chymotrypsin-like proteasome activity assay in M17 cells; assay type: cell-based; details: for effects of USP13 overexpression on proteasome activity: shRNA with USP13 overexpression
T1 construct: endogenous in cells; host or cells: human M17 neuroblastoma cells
Protocol: (§1) To further determine whether USP13 targets parkin, M17 cells were transfected with 3 μg lentiviral plasmids containing parkin, USP13 or different shRNA USP13 clones (FIG. 27A) for 48 hr. The expression level of the shRNAs was determined by routine stereology of the GFP and VS-tagged lentivirus to ensure equal expression of lentiviral plasmids. USP13 gene expression level is verified by PCR. Co-expression of USP13 and parkin led to an increase (134%) in parkin level compared to parkin alone (FIG. 27A, 1st blot, N=4), but shRNA expression reduced USP13 and parkin levels relative to actin (FIG. 27A). […] To ascertain that manipulation of USP13 expression affects protein clearance, the activity of the 20S proteasome activity was measured using chymotrypsin-like assays. Proteasome activity was inhibited after 2 hr treatment with 20 μM proteasome inhibitor MG132 compared to control (LacZ) or parkin alone (FIG. 27B, N=4).

USP10 = test: Western blot of STEN (soluble) extracts of M17 cells, endogenous USP10 level; assay type: cell-based, human; details: M17 cells transfected with 3 μg lentiviral plasmids for 48 hr; FIG. 27A 2nd blot
Protocol: as §1

USP13 = test: Western blot of STEN (soluble) extracts of M17 cells, USP13 level; assay type: cell-based, human; details: M17 cells transfected with 3 μg lentiviral plasmids for 48 hr; FIG. 27A 1st blot
Protocol: as §1

parkin = test: Western blot of STEN (soluble) extracts of M17 cells, parkin level; assay type: cell-based, human; details: M17 cells transfected with 3 μg lentiviral plasmids for 48 hr; FIG. 27A 3rd blot
Protocol: as §1

Compound	effect on USP10 level (USP10)	effects of USP13 overexpression on proteasome activity (20S proteasome)	further results
CC(C)C[C@@H](C=O)NC(=O)[C@H](CC(C)C)NC(=O)[C@H](CC(C)C)NC(=O)OCc1ccccc1 [MG132, reference compound] (Cbz-Leu-Leu-Leu-aldehyde)	–	–	proteasome activity (20S proteasome; 2 hr treatment with 20 μM, compared to control (LacZ) or parkin alone, N=4): inhibited; effect on shRNA-mediated increase/reversal of proteasome activity (20S proteasome; MG132 added to shRNA (F03, F02) conditions): blocked these effects; proteasome activity (20S proteasome; cells co-expressing USP13 with parkin): further inhibited
E07: USP13 shRNA clone, 5′ TTTCCAGTGAAGTACACAG 3′ (SEQ ID NO: 1)	without any effects	–	–
E08: USP13 shRNA clone, 5′ TATTCGTTGCTCGTAGTGC 3′(SEQ ID NO: 5)	did not produce any significant effects	–	effect on USP13 level (USP13): did not produce any significant effects; effect on parkin level (parkin): did not produce any significant effects
F02: USP13 shRNA clone, 5′ TCTTGTAGACCCTGTCGCC 3′ (SEQ ID NO: 4)	without any effects	completely reversed	–
F03: USP13 shRNA clone, 5′ TTTCTCGCAGGTCGCATCT 3′ (SEQ ID NO: 3)	without any effects	completely reversed	increase of proteasome activity (20S proteasome; blocking USP13 with shRNA, compared to control): 14%
F04: USP13 shRNA clone, 5′AACTTAGTCATCTGTGTGT 3′ (SEQ ID NO: 2)	without any effects	–	–
